What was measured:
Assay in all cases: Kinase assay, single dose inhibition (Millipore, 33P-ATP filter binding)
Type in all cases: biochemical
Details in all cases: 0.1 μM test compound, 10 μM ATP; remaining activity relative to DMSO control = 100%
[1] = target: EGFR (T790M, L858R) (h) (Homo sapiens (Human), UniProt P00533, L858R/T790M)
[2] = target: EGFR (L858R) (h) (Homo sapiens (Human), UniProt P00533, L858R)
Experimental: (§1) Assay conditions included 10 μM ATP and 100 nM test compounds.
(§2) All reactions are initiated by the addition of the MgATP mix. After incubation for 40 minutes at room temperature, the reaction is stopped by the addition of 3% phosphoric acid solution. 10 μL of the reaction is then spotted onto a P30 filtermat and washed three times for 5 minutes in 75 mM phosphoric acid and once in methanol prior to drying and scintillation counting. This assay is performed by Millipore. The experiment is carried out in duplicate. The value for the control sample (DMSO) was set to 100%, and the values for the compound-treated samples were expressed as activity relative to the control sample.

[3] = target: ALK (h) (Homo sapiens (Human), UniProt Q9UM73)
[4] = target: EGFR (h) (Homo sapiens (Human), UniProt P00533)
[5] = target: EGFR (T790M) (h) (Homo sapiens (Human), UniProt P00533, T790M)
Experimental: as §1, §2

Chain of ALK (h) (Q9UM73 19-1620): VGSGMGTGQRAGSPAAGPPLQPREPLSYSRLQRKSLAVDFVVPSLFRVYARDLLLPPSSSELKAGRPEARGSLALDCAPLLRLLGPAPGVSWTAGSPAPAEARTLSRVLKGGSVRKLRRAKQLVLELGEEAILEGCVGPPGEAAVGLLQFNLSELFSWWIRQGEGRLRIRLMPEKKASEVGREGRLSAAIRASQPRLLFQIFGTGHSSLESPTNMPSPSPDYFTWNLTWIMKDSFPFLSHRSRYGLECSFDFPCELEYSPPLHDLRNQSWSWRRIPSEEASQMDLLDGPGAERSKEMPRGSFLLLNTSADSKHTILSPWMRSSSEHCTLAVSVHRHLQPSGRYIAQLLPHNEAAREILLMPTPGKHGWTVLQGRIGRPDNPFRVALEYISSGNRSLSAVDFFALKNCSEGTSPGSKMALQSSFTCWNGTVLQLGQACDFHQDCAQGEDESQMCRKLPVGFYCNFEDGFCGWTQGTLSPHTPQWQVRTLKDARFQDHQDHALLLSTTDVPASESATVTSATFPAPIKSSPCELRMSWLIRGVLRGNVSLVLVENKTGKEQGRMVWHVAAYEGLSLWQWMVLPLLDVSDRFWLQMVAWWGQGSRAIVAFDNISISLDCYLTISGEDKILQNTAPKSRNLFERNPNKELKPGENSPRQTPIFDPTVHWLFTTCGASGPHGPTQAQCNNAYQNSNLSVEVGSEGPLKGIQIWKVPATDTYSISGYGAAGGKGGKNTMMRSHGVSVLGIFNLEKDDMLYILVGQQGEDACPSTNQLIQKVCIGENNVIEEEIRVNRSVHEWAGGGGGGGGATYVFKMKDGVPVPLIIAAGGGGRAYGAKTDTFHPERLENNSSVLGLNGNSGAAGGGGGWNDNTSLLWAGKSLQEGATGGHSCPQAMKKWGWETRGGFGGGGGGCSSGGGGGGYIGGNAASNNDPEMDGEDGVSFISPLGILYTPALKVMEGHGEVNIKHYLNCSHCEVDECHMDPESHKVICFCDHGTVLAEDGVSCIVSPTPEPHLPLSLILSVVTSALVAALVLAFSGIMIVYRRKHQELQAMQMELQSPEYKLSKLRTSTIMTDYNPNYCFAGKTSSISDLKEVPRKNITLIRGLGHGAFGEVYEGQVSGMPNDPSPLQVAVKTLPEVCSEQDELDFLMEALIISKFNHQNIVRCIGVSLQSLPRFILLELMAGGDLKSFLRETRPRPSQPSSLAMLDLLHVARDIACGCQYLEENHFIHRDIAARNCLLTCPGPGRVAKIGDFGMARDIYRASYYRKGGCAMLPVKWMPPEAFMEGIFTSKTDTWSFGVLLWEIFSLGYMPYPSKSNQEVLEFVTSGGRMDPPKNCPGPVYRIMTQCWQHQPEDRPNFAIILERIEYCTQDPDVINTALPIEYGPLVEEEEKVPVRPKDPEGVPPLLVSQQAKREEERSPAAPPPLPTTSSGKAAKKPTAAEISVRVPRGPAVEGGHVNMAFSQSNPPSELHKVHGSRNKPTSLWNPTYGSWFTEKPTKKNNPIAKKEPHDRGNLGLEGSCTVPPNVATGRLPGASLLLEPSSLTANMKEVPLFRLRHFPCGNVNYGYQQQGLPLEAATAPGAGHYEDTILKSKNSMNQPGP
Chain of EGFR (T790M, L858R) (h) (P00533 25-1210 T790M/L858R): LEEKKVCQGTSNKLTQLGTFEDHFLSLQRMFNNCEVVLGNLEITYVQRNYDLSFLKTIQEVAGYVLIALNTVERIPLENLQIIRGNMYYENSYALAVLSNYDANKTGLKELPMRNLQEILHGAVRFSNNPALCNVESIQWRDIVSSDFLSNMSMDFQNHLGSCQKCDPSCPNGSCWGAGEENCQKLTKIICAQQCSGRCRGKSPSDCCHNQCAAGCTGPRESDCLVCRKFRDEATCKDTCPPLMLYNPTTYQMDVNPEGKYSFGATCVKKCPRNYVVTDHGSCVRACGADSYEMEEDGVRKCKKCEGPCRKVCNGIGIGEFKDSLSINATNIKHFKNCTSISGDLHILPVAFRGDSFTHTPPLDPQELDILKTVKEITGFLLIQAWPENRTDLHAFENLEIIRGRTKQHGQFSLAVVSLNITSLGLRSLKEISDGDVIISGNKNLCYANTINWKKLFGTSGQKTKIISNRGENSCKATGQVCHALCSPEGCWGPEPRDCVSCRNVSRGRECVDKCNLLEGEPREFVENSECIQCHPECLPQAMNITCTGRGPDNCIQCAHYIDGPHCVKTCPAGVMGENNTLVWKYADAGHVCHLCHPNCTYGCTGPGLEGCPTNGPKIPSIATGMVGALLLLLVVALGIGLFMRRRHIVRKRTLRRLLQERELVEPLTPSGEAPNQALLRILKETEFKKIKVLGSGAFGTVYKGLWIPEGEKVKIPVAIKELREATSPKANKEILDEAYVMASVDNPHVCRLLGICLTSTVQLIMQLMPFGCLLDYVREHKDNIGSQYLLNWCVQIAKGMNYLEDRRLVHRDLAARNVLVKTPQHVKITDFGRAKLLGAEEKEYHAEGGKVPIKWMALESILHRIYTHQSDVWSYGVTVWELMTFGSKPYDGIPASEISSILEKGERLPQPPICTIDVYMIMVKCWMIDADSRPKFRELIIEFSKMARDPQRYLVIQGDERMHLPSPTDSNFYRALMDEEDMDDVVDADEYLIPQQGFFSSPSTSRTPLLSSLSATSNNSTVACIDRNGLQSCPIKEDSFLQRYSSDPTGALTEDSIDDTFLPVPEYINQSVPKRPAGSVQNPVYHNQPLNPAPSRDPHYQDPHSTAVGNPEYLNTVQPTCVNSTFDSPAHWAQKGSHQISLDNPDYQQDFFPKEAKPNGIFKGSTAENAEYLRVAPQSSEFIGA
Chain of EGFR (L858R) (h) (P00533 25-1210 L858R): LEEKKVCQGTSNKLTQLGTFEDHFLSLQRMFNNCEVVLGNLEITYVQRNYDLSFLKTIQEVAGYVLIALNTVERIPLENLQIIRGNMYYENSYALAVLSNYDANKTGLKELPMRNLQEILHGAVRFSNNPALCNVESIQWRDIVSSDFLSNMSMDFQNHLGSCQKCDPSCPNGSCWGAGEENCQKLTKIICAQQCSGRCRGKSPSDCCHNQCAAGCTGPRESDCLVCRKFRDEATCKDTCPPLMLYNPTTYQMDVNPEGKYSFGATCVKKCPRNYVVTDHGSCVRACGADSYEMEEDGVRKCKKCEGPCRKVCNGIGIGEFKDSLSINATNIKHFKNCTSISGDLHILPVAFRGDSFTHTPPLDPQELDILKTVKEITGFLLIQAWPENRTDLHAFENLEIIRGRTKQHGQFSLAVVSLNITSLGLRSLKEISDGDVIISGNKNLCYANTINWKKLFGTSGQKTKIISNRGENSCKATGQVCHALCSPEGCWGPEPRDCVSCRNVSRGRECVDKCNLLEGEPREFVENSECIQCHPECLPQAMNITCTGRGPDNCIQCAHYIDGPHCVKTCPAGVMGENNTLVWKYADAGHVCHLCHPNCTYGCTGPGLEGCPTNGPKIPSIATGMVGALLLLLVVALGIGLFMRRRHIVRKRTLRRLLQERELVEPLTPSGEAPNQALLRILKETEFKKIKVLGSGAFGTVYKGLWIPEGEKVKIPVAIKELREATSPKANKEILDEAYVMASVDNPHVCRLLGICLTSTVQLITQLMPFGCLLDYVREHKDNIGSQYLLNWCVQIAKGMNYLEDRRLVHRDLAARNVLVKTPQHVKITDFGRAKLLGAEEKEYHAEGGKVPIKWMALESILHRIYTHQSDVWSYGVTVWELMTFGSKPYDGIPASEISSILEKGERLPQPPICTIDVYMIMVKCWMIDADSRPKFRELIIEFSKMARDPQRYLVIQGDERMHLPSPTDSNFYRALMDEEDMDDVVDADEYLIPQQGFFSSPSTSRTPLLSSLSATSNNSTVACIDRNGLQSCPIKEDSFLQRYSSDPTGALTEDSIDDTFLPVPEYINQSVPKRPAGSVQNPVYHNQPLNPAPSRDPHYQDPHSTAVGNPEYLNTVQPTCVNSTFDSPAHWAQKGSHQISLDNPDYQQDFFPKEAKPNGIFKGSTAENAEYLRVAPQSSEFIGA

`C=C(CN(C)C)C(=O)Nc1ccc(OC)c(Nc2ncc(Cl)c(Nc3ccccc3C(=O)C(=O)N(C)C)n2)c1` [Example 78, N-(3-(5-chloro-4-(2-(2-(dimethylamino)-2-oxoactyl)phenylamino)pyrimidin-2-ylamino)-4-methoxyphenyl)-2-((dimethylamino)methyl)acrylamide] was tested, and the “Activity (control) % EGFR (T790M, L858R) (h)” value [1] was 3%, the “Activity (control) % EGFR (L858R) (h)” value [2] was 37% and the “Activity (control) % ALK (h)” value [3] was 36%. The “Activity (control) % EGFR (h)” value [4] was 68% and the “Activity (control) % EGFR (T790M) (h)” value [5] was 2%.
In the case of `COc1ccc(NC(=O)/C=C/CN2CCOCC2)cc1Nc1ncc(Cl)c(Nc2ccccc2C(=O)C(=O)N(C)C)n1` [Example 79, (E)-N-(3-(5-chloro-4-(2-(2-(dimethylamino)-2-oxoacetyl)phenylamino)pyrimidin-2-ylamino)-4-methoxyphenyl)-4-morpholinobut-2-enamide], the “Activity (control) % EGFR (T790M, L858R) (h)” value [1] is reported as 2%, the “Activity (control) % EGFR (L858R) (h)” value [2] is reported as 25% and the “Activity (control) % ALK (h)” value [3] is reported as 7%. For the same molecule, the “Activity (control) % EGFR (h)” value [4] was 92% and the “Activity (control) % EGFR (T790M) (h)” value [5] was 16%.
`COc1ccc(NC(=O)/C=C/CN(C)C)cc1Nc1ncc(Cl)c(Nc2ccccc2C(=O)C(=O)N(C)C)n1` [Example 80, (E)-N-(3-(5-chloro-4-(2-(2-(dimethylamino)-2-oxoacetyl)phenylamino)pyrimidin-2-ylamino)-4-methoxyphenyl)-4-(dimethylamino)but-2-enamide] was tested, and the “Activity (control) % EGFR (T790M, L858R) (h)” value [1] was 7%, the “Activity (control) % EGFR (L858R) (h)” value [2] was 43% and the “Activity (control) % ALK (h)” value [3] was 10%. For the same molecule, the “Activity (control) % EGFR (h)” value [4] was 101% and the “Activity (control) % EGFR (T790M) (h)” value [5] was 42%.
In the case of `C=CC(=O)Nc1ccc(OC)c(Nc2ncc(Cl)c(Nc3ccccc3C(=O)C(=O)N3CCN(C)CC3)n2)c1` [Example 89, N-(3-(5-chloro-4-(2-(2-(4-methylpiperazin-1-yl)-2-oxoacetyl)phenylamino)pyrimidin-2-ylamino)-4-methoxyphenyl)acrylamide], the “Activity (control) % EGFR (T790M, L858R) (h)” value [1] is reported as 1%, the “Activity (control) % EGFR (L858R) (h)” value [2] is reported as 10% and the “Activity (control) % ALK (h)” value [3] is reported as 8%. For the same molecule, the “Activity (control) % EGFR (h)” value [4] was 67% and the “Activity (control) % EGFR (T790M) (h)” value [5] was 5%.
For `COc1cc(Nc2ncc(Cl)c(Nc3ccccc3C(=O)C(=O)N(C)C)n2)ccc1N1CCN(C(C)=O)CC1` [Example 94, 2-(2-(2-(4-(4-acetylpiperazin-1-yl)-3-methoxyphenylamino)-5-chloropyrimidin-4-ylamino)phenyl)-N,N-dimethyl-2-oxoacetamide], the “Activity (control) % EGFR (T790M, L858R) (h)” value [1] was 9%, the “Activity (control) % EGFR (L858R) (h)” value [2] was 84% and the “Activity (control) % ALK (h)” value [3] was 6%. The “Activity (control) % EGFR (h)” value [4] was 100% and the “Activity (control) % EGFR (T790M) (h)” value [5] was 45%.
With `C=C(CN1CCCC1)C(=O)Nc1ccc(OC)c(Nc2ncc(Cl)c(Nc3ccccc3C(=O)C(=O)N(C)C)n2)c1` [Example 97, N-(3-(5-chloro-4-(2-(2-(dimethylamino)-2-oxoactyl)phenylamino)pyrimidin-2-ylamino)-4-methoxyphenyl)-2-(pyrrolidin-1-ylmethyl)acrylamide] the “Activity (control) % EGFR (T790M, L858R) (h)” value [1] was 6%, the “Activity (control) % EGFR (L858R) (h)” value [2] was 46% and the “Activity (control) % ALK (h)” value [3] was 23%. For the same molecule, the “Activity (control) % EGFR (h)” value [4] was 74% and the “Activity (control) % EGFR (T790M) (h)” value [5] was 2%.
With `C=CC(=O)Nc1cc(Nc2ncc(C)c(Nc3ccccc3C(=O)C(=O)N(C)C)n2)ccc1OC` [Example 101, N-(5-(4-(2-(2-(dimethylamino)-2-oxoacetyl)phenylamino)-5-methylpyrimidin-2-ylamino)-2-methoxyphenyl)acrylamide] the “Activity (control) % EGFR (T790M, L858R) (h)” value [1] was 41%, the “Activity (control) % EGFR (L858R) (h)” value [2] was 94% and the “Activity (control) % ALK (h)” value [3] was 35%. For the same molecule, the “Activity (control) % EGFR (h)” value [4] was 110% and the “Activity (control) % EGFR (T790M) (h)” value [5] was 83%.
In the case of `C=CC(=O)Nc1cc(Nc2ncc(Cl)c(Nc3ccccc3C(=O)C(=O)N(C)CCN(C)C)n2)ccc1OC` [Example 102, N-(5-(5-chloro-4-(2-(2-((2-(dimethylamino)ethyl)(methyl)amino)-2-oxoactyl)phenylamino)pyrimidin-2-ylamino)-2-methoxyphenyl)acrylamide], the “Activity (control) % EGFR (T790M, L858R) (h)” value [1] is reported as 5%, the “Activity (control) % EGFR (L858R) (h)” value [2] is reported as 57% and the “Activity (control) % ALK (h)” value [3] is reported as 5%. For the same molecule, the “Activity (control) % EGFR (h)” value [4] was 98% and the “Activity (control) % EGFR (T790M) (h)” value [5] was 40%.
In the case of `C=CC(=O)Nc1cc(Nc2ncc(Cl)c(Nc3ccccc3C(=O)C(=O)N(C)C)n2)ccc1N1CCN(C)CC1` [Example 111, N-(5-(5-chloro-4-(2-(2-(dimethylamino)-2-oxoactyl)phenylamino)pyrimidin-2-ylamino)-2-(4-methylpiperazin-1-yl)phenyl)acrylamide], the “Activity (control) % EGFR (T790M, L858R) (h)” value [1] is reported as 11%, the “Activity (control) % EGFR (L858R) (h)” value [2] is reported as 76% and the “Activity (control) % ALK (h)” value [3] is reported as 8%. The “Activity (control) % EGFR (h)” value [4] was 109% and the “Activity (control) % EGFR (T790M) (h)” value [5] was 59%.
`C=C(CN1CCCCC1)C(=O)Nc1cccc(Nc2ncc(Cl)c(Nc3ccccc3C(=O)C(=O)N(C)C)n2)c1` [Example 113, N-(3-(5-chloro-4-(2-(2-(dimethylamino)-2-oxoacetyl)phenylamino)pyrimidin-2-ylamino)phenyl)-2-(piperidin-1-ylmethyl)acrylamide] was tested, and the “Activity (control) % EGFR (T790M, L858R) (h)” value [1] was 3%, the “Activity (control) % EGFR (L858R) (h)” value [2] was 78% and the “Activity (control) % ALK (h)” value [3] was 19%. For the same molecule, the “Activity (control) % EGFR (h)” value [4] was 88% and the “Activity (control) % EGFR (T790M) (h)” value [5] was 16%.
In the case of `CN(C)C/C=C/C(=O)Nc1cccc(Nc2ncc(Cl)c(Nc3ccccc3C(=O)C(=O)N(C)C)n2)c1` [Example 114, (E)-N-(3-(5-chloro-4-(2-(2-(dimethylamino)-2-oxoacetyl)phenylamino)pyrimidin-2-ylamino)phenyl)-4-(dimethylamino)but-2-enamide], the “Activity (control) % EGFR (T790M, L858R) (h)” value [1] is reported as 8%, the “Activity (control) % EGFR (L858R) (h)” value [2] is reported as 52% and the “Activity (control) % ALK (h)” value [3] is reported as 10%. For the same molecule, the “Activity (control) % EGFR (h)” value [4] was 91% and the “Activity (control) % EGFR (T790M) (h)” value [5] was 47%.
In the case of `COc1cc(Nc2ncc(Cl)c(Nc3ccccc3C(=O)C(=O)N(C)C)n2)ccc1N1CCOCC1` [Example 117, 2-(2-(5-chloro-2-(3-methoxy-4-morpholinophenylamino)pyrimidin-4-ylamino)phenyl)-N,N-dimethyl-2-oxoacetamide], the “Activity (control) % EGFR (T790M, L858R) (h)” value [1] is reported as 14%, the “Activity (control) % EGFR (L858R) (h)” value [2] is reported as 88% and the “Activity (control) % ALK (h)” value [3] is reported as 8%. For the same molecule, the “Activity (control) % EGFR (h)” value [4] was 113% and the “Activity (control) % EGFR (T790M) (h)” value [5] was 65%.
In the case of `CCC(=O)Nc1cc(Nc2ncc(Cl)c(Nc3ccccc3C(=O)C(=O)N(C)C)n2)ccc1OCCN(C)C` [Example 120, N-(5-(5-chloro-4-(2-(2-(dimethylamino)-2-oxoactyl)phenylamino)pyrimidin-2-ylamino)-2-(2-(dimethylamino)ethoxy)phenyl)propionamide], the “Activity (control) % EGFR (T790M, L858R) (h)” value [1] is reported as 14%, the “Activity (control) % EGFR (L858R) (h)” value [2] is reported as 76% and the “Activity (control) % ALK (h)” value [3] is reported as 8%. For the same molecule, the “Activity (control) % EGFR (h)” value [4] was 115% and the “Activity (control) % EGFR (T790M) (h)” value [5] was 62%.
In the case of `CN(C)C(=O)C(=O)c1ccccc1Nc1nc(Nc2ccc(F)c(NC(=O)CCN3CCOCC3)c2)ncc1Cl` [Example 123, N-(5-(5-chloro-4-(2-(2-(dimethylamino)-2-oxoactyl)phenylamino)pyrimidin-2-ylamino)-2-fluorophenyl)-3-morpholinopropanamide], the “Activity (control) % EGFR (T790M, L858R) (h)” value [1] is reported as 31%, the “Activity (control) % EGFR (L858R) (h)” value [2] is reported as 94% and the “Activity (control) % ALK (h)” value [3] is reported as 17%. For the same molecule, the “Activity (control) % EGFR (h)” value [4] was 115% and the “Activity (control) % EGFR (T790M) (h)” value [5] was 84%.
